Assay results published in PubChem BioAssay (NCI).
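Following 48 hours of exposure in 96-well plates, responses at five concentrations were used to interpolate endpoints linearly. GI50 = concentration required for 50% inhibition of growth. The concentration for full growth arrest is given as TGI.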

Columns and labels:
Assay in all cases: NCI tumour cell line growth inhibition, 48 h
HS 578T breast = test system: HS 578T breast
T-47D breast = test system: T-47D breast
SK-OV-3 ovarian = test system: SK-OV-3 ovarian
SK-MEL-5 melanoma = test system: SK-MEL-5 melanoma
HCT-15 colon = test system: HCT-15 colon
KM12 colon = test system: KM12 colon
SF-268 CNS = test system: SF-268 CNS
SNB-19 CNS = test system: SNB-19 CNS
NCI-H226 lung = test system: NCI-H226 lung
HOP-92 NSCLC = test system: HOP-92 NSCLC
CCRF-CEM leukemia = test system: CCRF-CEM leukemia
HL-60(TB) leukemia = test system: HL-60(TB) leukemia
M14 melanoma = test system: M14 melanoma
TK-10 renal = test system: TK-10 renal
SK-MEL-28 melanoma = test system: SK-MEL-28 melanoma
ACHN renal = test system: ACHN renal
HCC-2998 colon = test system: HCC-2998 colon
SF-539 CNS = test system: SF-539 CNS
RPMI-8226 leukemia = test system: RPMI-8226 leukemia
EKVX NSCLC = test system: EKVX NSCLC
PC-3 prostate = test system: PC-3 prostate
SNB-75 CNS = test system: SNB-75 CNS
NCI-H460 lung = test system: NCI-H460 lung
A498 renal = test system: A498 renal
SN12C renal = test system: SN12C renal
U251 CNS = test system: U251 CNS
SW-620 colon = test system: SW-620 colon
DU-145 prostate = test system: DU-145 prostate
MDA-MB-231 breast = test system: MDA-MB-231 breast
SK-MEL-2 melanoma = test system: SK-MEL-2 melanoma
LOX IMVI melanoma = test system: LOX IMVI melanoma
MALME-3M melanoma = test system: MALME-3M melanoma
BT-549 breast = test system: BT-549 breast
OVCAR-8 ovarian = test system: OVCAR-8 ovarian
786-0 renal = test system: 786-0 renal
OVCAR-4 ovarian = test system: OVCAR-4 ovarian
UO-31 renal = test system: UO-31 renal
OVCAR-5 ovarian = test system: OVCAR-5 ovarian
A549 NSCLC = test system: A549 NSCLC
COLO 205 colon = test system: COLO 205 colon
IGROV1 ovarian = test system: IGROV1 ovarian
UACC-62 melanoma = test system: UACC-62 melanoma
HOP-62 NSCLC = test system: HOP-62 NSCLC
HT29 colon = test system: HT29 colon
NCI-H23 lung = test system: NCI-H23 lung
MOLT-4 leukemia = test system: MOLT-4 leukemia
NCI/ADR-RES ovarian = test system: NCI/ADR-RES ovarian
UACC-257 melanoma = test system: UACC-257 melanoma
MDA-MB-435 = test system: MDA-MB-435
SF-295 CNS = test system: SF-295 CNS
MCF7 breast = test system: MCF7 breast
CAKI-1 renal = test system: CAKI-1 renal
RXF 393 renal = test system: RXF 393 renal
NCI-H522 lung = test system: NCI-H522 lung
K-562 leukemia = test system: K-562 leukemia
SR leukemia = test system: SR leukemia

## CNC[C@@H](NC(=O)c1ccc(-c2nc([C@H]3CC[C@H](O)[C@@H](F)C3)cnc2N)cc1F)c1cc(F)cc(Br)c1
HS 578T breast
  GI50: 12.6 µM
  TGI: 39.4 µM
T-47D breast
  GI50: 18.3 µM
  TGI: 36.2 µM
SK-OV-3 ovarian
  GI50: 17 µM
  TGI: 31.3 µM
SK-MEL-5 melanoma
  GI50: 15.2 µM
  TGI: 29.3 µM
HCT-15 colon
  GI50: 16.5 µM
  TGI: 31.8 µM
KM12 colon
  GI50: 16 µM
  TGI: 31.3 µM
SF-268 CNS
  GI50: 12.6 µM
  TGI: 30.2 µM
SNB-19 CNS
  GI50: 17.7 µM
  TGI: 36 µM
NCI-H226 lung
  GI50: 16.5 µM
  TGI: 35.3 µM
HOP-92 NSCLC
  GI50: 2.57 µM
  TGI: 16.5 µM
CCRF-CEM leukemia
  GI50: 16 µM
  TGI: 39.1 µM
HL-60(TB) leukemia
  GI50: 13.6 µM
  TGI: 34.2 µM
M14 melanoma
  GI50: 15.2 µM
  TGI: 31.1 µM
TK-10 renal
  GI50: 12.2 µM
  TGI: 28.9 µM
SK-MEL-28 melanoma
  GI50: 17 µM
  TGI: 32.4 µM
ACHN renal
  GI50: 15 µM
  TGI: 29.1 µM
HCC-2998 colon
  GI50: 17.3 µM
  TGI: 31.8 µM
SF-539 CNS
  GI50: 15.2 µM
  TGI: 29.1 µM
RPMI-8226 leukemia
  GI50: 11.2 µM
  TGI: 30.8 µM
EKVX NSCLC
  GI50: 16.1 µM
  TGI: 33.2 µM
PC-3 prostate
  GI50: 12.3 µM
  TGI: 25.5 µM
SNB-75 CNS
  GI50: 4.09 µM
  TGI: 23.5 µM
NCI-H460 lung
  GI50: 17.7 µM
  TGI: 33.5 µM
A498 renal
  GI50: 13.1 µM
  TGI: 26.7 µM
SN12C renal
  GI50: 16.5 µM
  TGI: 32.9 µM
U251 CNS
  GI50: 14.6 µM
  TGI: 32.4 µM
SW-620 colon
  GI50: 18.4 µM
  TGI: 34.5 µM
DU-145 prostate
  GI50: 17.2 µM
  TGI: 32.8 µM
MDA-MB-231 breast
  GI50: 12.7 µM
  TGI: 27.3 µM
SK-MEL-2 melanoma
  GI50: 14 µM
  TGI: 28.7 µM
LOX IMVI melanoma
  GI50: 15 µM
  TGI: 29.4 µM
MALME-3M melanoma
  GI50: 13.9 µM
  TGI: 28.9 µM
BT-549 breast
  GI50: 11.2 µM
  TGI: 25.3 µM
OVCAR-8 ovarian
  GI50: 17.3 µM
  TGI: 35 µM
786-0 renal
  GI50: 14 µM
  TGI: 29.5 µM
OVCAR-4 ovarian
  GI50: 18.1 µM
  TGI: 50.2 µM
UO-31 renal
  GI50: 12.3 µM
  TGI: 26.4 µM
OVCAR-5 ovarian
  GI50: 16.4 µM
  TGI: 40.2 µM
A549 NSCLC
  GI50: 14.3 µM
  TGI: 30.1 µM
COLO 205 colon
  GI50: 13 µM
  TGI: 27 µM
IGROV1 ovarian
  GI50: 16 µM
  TGI: 34 µM
UACC-62 melanoma
  GI50: 17.4 µM
  TGI: 32.8 µM
HOP-62 NSCLC
  GI50: 14.3 µM
  TGI: 28.7 µM
HT29 colon
  GI50: 13.2 µM
  TGI: 27 µM
NCI-H23 lung
  GI50: 17.8 µM
  TGI: 35.3 µM
MOLT-4 leukemia
  GI50: 15 µM
  TGI: 49.2 µM
NCI/ADR-RES ovarian
  GI50: 38.9 µM
  TGI: > 100 µM
UACC-257 melanoma
  GI50: 15 µM
  TGI: 30.5 µM
MDA-MB-435
  GI50: 16.1 µM
  TGI: 30.9 µM
SF-295 CNS
  GI50: 17.1 µM
  TGI: 32.5 µM
MCF7 breast
  GI50: 18.3 µM
  TGI: 34.5 µM
CAKI-1 renal
  GI50: 11.6 µM
  TGI: 28.3 µM
RXF 393 renal
  GI50: 6.28 µM
  TGI: 21.1 µM
NCI-H522 lung
  GI50: 16.6 µM
  TGI: 32.4 µM
K-562 leukemia
  GI50: 13.6 µM
  TGI: 38.2 µM
SR leukemia
  GI50: 13.1 µM
  TGI: 35.3 µM
